Read-outs that look alike come from different tables or passages of the source. Where no end group is shown, it is not given here.
Assays:
[1] = biological target: T1, GLP-1R (Rattus norvegicus, UniProt P32301); assay: cAMP assay in Rinm cells; assay type: cell-based; conditions: similar experiment
T1 construct: endogenous in cells; host or cells: Rinm cells
T1 sequence (P32301 22-463): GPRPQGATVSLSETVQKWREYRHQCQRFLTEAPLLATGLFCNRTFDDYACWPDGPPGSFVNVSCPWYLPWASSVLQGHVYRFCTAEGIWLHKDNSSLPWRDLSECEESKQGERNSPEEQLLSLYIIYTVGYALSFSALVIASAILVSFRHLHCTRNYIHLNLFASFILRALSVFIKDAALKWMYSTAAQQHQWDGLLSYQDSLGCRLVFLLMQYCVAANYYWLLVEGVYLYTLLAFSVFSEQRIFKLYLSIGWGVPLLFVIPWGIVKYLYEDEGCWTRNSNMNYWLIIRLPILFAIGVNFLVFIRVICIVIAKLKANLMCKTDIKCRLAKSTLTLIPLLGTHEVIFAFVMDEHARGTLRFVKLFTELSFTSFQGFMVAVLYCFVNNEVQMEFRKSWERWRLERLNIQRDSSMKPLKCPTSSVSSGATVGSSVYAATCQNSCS
Description: cAMP Assay. GLP-1 binds to its receptor, a G-protein coupled receptor, resulting in a dose-dependent increase in the signaling molecule, 3′,5′-cyclic AMP (cAMP). cAMP can be measured with an in vitro assay in cells expressing the GLP-1R (Applied Biosystems). […] The cells were lysed, and the amount of cAMP was determined using a competitive assay that employs an alkaline-phosphatase labeled cAMP conjugate and a chemiluminescent substrate (Tropix® CDPD®).

[2] = tested on: db/db mice; assay: Blood glucose lowering in db/db mice; assay type: in vivo; conditions: six week old db/db mice fasted two hours, intravenous; 0.5-4 hours post-dosing; MMB dose 100-fold lower than GLP-1 peptide dose
Description: GLP-1 MMB Lowers Glucose Level in db/db Mice. […] Blood glucose was monitored 0.5, 1, 2, 3, and 4 hours post-dosing.

[3] = tested on: diabetic rats; conditions: cited from earlier work
[4] = cited from earlier work
[5] = cited from earlier work; remark: listed apart in the source

Which “cAMP levels in Rinm cells relative to wt GLP-1 MMB in IgG4 scaffold” value [1] does the source give for “GLP-1 (A2S) MMB in IgG4 scaffold: mimetibody with DPP-IV resistant GLP-1 variant GLP-1 (A2S) in IgG4 scaffold (HSEGTFTSDVSSYLEGQAAKEFIAWLVKGRG; also: in IgG4 mimetibody scaffold)” here?
The value was “significantly higher level than wt GLP-1 MMB in IgG4 scaffold”.

What does the source list for `CC[C@H](C)[C@H](NC(=O)[C@H](Cc1ccccc1)NC(=O)[C@H](CCC(=O)O)NC(=O)[C@H](CCCCN)NC(=O)[C@H](C)NC(=O)[C@H](C)NC(=O)[C@H](CCC(N)=O)NC(=O)CNC(=O)[C@H](CCC(=O)O)NC(=O)[C@H](CC(C)C)NC(=O)[C@H](Cc1ccc(O)cc1)NC(=O)[C@H](CO)NC(=O)[C@H](CO)NC(=O)[C@@H](NC(=O)[C@H](CC(=O)O)NC(=O)[C@H](CO)NC(=O)[C@@H](NC(=O)[C@H](Cc1ccccc1)NC(=O)[C@@H](NC(=O)CNC(=O)[C@H](CCC(=O)O)NC(=O)[C@H](C)NC(=O)[C@@H](N)Cc1c[nH]cn1)[C@@H](C)O)[C@@H](C)O)C(C)C)C(=O)N[C@@H](C)C(=O)N[C@@H](Cc1c[nH]c2ccccc12)C(=O)N[C@@H](CC(C)C)C(=O)N[C@H](C(=O)N[C@@H](CCCCN)C(=O)NCC(=O)N[C@@H](CCCNC(=N)N)C(N)=O)C(C)C` [GLP-1 peptide]?
blood glucose [2]: lowered blood glucose at 30 minutes, but by 60 minutes, the blood glucose began to increase again; insulin sensitivity ([3]; acute administration): not acute; insulin sensitivity ([3]; chronic administration): significant improvement in insulin sensitivity

With “GLP-1 (A2G) MMB in IgG4 scaffold: mimetibody with DPP-IV resistant GLP-1 variant GLP-1 (A2G) in IgG4 scaffold (HGEGTFTSDVSSYLEGQAAKEFIAWLVKGRG; also: in IgG4 mimetibody scaffold)” as the compound, how does the “cAMP levels in Rinm cells relative to wt GLP-1 MMB in IgG4 scaffold” value [1] read?
Its value is “significantly higher level than wt GLP-1 MMB in IgG4 scaffold”.

For “Byetta™: recently marketed GLP-1 analogue developed by Amylin and Eli Lilly, first identified in the saliva of the gila monster lizard”, which “in vivo half life” value [4] is on record?
Its value is “less than 30 minutes”.

And the “sustained decrease in body weight” value ([5]; during the course of the study)?
The value was 5-10 pounds.

And the HbAlc levels lowered ([5]; following 82 weeks of treatment)?
The HbAlc levels lowered was “approximately 1%”.

From patent US7833531B2, “Method for treating insulin sensitivity by long-acting GLP-1 receptor mimetibody agonists” (Centocor, Inc., priority 2006, dated 2010)
